Measurements as given in PMC7700746 (Bioorganic & medicinal chemistry letters, 2020).

Legend:
[1] = biological target: α5β1 integrin (Homo sapiens, UniProt P05556+P08648); assay: Cell adhesion assay, SW480 plated on fibronectin; format: cell-based; conditions: for improvement of potency against α5β1 integrin: cell adhesion, versus alkyl-linker compounds
[2] = biological target: αvβ1 integrin (UniProt G3HZ55+P06756); assay: Cell adhesion assay, CHOαv adhering to fibronectin; format: cell-based
[3] = biological target: αvβ3 integrin (Homo sapiens, UniProt P05106+P06756); assay: Cell adhesion assay, SW480 transfected with human β3 adhering to fibrinogen; format: cell-based
[4] = system: Caco-2 cell; assay: Caco-2 cell permeability assay; format: in vitro ADME
[5] = Solubility; format: physicochemical
[6] = biological target: α4β1 integrin (Homo sapiens, UniProt P05556+P13612); conditions: cited from earlier work

Sequence of αvβ3 integrin (P06756 31-889 limits assumed): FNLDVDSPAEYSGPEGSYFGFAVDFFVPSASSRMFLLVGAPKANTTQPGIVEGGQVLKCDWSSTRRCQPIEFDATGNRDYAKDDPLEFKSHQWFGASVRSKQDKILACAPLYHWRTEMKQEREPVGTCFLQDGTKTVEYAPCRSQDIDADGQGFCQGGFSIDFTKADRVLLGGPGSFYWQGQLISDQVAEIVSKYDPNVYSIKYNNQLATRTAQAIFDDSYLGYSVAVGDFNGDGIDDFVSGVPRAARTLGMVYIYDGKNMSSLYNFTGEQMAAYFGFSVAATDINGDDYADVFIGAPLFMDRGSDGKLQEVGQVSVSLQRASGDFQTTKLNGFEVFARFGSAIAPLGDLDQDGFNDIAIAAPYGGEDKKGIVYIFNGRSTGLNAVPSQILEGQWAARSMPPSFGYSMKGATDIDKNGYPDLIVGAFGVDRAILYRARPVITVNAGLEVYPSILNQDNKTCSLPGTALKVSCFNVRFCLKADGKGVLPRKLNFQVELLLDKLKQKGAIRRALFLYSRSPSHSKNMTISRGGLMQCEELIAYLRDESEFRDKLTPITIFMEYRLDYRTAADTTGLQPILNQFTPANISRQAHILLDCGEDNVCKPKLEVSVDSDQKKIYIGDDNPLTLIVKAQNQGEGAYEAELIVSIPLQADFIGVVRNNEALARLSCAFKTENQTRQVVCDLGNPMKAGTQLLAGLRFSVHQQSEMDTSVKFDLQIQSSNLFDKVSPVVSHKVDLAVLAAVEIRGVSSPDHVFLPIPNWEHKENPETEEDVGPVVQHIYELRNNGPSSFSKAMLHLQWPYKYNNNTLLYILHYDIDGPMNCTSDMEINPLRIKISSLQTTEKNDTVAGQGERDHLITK
Sequence of αvβ3 integrin (P06756 891-1048 partner limits assumed): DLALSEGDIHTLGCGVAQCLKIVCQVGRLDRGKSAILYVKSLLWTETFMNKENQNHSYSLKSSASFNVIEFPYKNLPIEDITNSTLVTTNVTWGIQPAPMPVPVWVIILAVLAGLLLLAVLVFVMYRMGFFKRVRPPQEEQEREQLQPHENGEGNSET
Sequence of αvβ3 integrin (P05106 27-788): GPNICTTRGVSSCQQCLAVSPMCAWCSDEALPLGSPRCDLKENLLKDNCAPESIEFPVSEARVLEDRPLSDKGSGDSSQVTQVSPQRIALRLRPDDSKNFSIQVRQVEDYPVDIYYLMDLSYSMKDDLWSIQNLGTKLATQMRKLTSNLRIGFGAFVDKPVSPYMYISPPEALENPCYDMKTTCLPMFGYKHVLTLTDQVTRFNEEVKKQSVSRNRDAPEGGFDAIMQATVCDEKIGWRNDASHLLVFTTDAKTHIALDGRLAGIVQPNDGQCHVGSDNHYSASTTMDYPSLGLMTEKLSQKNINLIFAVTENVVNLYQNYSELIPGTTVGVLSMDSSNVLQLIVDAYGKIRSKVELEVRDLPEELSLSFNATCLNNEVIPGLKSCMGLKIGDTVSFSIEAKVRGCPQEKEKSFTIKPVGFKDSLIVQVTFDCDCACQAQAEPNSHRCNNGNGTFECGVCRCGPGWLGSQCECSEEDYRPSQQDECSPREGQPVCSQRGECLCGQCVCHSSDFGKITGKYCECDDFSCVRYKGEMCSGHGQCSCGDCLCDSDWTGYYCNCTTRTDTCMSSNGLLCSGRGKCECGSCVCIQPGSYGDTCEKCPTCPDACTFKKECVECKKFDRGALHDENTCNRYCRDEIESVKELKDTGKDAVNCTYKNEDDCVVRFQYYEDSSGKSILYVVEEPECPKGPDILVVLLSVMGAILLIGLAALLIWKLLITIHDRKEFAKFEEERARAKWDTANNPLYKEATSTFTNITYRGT
Sequence of α5β1 integrin (P08648 42-894 limits assumed): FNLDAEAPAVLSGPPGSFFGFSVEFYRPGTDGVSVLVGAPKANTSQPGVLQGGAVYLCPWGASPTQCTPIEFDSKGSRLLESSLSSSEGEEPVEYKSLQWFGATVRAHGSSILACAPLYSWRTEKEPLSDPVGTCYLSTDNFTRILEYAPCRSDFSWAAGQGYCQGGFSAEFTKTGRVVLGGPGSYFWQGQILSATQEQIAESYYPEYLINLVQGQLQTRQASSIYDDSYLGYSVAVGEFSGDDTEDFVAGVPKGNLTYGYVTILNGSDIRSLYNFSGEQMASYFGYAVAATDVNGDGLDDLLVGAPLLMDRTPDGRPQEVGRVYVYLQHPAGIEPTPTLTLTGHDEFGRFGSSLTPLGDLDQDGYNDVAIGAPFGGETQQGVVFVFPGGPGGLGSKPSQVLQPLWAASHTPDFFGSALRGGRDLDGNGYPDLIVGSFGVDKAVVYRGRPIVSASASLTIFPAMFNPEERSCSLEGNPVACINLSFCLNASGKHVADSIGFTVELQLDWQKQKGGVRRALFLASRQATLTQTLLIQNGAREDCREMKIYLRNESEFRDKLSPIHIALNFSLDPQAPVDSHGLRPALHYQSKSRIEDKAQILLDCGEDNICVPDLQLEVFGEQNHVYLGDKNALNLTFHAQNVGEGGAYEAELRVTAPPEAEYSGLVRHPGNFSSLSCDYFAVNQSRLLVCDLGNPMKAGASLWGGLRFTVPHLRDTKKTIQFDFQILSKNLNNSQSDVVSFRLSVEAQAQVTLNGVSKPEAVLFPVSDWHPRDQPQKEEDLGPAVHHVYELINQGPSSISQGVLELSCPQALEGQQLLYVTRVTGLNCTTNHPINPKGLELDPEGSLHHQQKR
Sequence of α5β1 integrin (P08648 895-1049 partner limits assumed): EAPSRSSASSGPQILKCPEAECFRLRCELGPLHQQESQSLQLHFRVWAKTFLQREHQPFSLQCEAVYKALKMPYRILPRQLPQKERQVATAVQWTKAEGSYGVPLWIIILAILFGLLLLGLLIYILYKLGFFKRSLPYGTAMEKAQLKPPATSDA
Sequence of α5β1 integrin (P05556 21-798): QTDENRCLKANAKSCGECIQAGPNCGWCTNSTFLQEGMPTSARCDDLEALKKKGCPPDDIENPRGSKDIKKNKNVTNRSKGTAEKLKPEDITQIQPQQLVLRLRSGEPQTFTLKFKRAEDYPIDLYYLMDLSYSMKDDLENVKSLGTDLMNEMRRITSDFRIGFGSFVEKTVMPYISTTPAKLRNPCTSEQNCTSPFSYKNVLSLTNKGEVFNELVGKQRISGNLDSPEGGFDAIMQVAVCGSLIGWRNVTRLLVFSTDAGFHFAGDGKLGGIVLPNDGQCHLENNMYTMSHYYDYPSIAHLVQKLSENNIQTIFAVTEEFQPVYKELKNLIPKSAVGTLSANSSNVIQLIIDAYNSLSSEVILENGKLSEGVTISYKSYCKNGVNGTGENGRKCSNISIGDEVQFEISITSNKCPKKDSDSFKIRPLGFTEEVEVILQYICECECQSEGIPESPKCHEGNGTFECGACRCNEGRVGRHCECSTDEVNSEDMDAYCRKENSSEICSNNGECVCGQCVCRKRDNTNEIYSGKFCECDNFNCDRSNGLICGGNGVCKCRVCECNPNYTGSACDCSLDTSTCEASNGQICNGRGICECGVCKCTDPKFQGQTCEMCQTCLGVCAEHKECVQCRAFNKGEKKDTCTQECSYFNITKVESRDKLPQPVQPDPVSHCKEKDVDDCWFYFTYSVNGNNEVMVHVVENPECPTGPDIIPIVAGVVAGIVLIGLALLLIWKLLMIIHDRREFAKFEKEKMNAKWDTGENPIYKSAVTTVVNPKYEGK
Sequence of αvβ1 integrin (P06756 31-889 limits assumed): as the sequence (P06756 31-889 limits assumed) above
Sequence of αvβ1 integrin (P06756 891-1048 limits assumed): as the sequence (P06756 891-1048 partner limits assumed) above
Sequence of αvβ1 integrin (G3HZ55 21-798): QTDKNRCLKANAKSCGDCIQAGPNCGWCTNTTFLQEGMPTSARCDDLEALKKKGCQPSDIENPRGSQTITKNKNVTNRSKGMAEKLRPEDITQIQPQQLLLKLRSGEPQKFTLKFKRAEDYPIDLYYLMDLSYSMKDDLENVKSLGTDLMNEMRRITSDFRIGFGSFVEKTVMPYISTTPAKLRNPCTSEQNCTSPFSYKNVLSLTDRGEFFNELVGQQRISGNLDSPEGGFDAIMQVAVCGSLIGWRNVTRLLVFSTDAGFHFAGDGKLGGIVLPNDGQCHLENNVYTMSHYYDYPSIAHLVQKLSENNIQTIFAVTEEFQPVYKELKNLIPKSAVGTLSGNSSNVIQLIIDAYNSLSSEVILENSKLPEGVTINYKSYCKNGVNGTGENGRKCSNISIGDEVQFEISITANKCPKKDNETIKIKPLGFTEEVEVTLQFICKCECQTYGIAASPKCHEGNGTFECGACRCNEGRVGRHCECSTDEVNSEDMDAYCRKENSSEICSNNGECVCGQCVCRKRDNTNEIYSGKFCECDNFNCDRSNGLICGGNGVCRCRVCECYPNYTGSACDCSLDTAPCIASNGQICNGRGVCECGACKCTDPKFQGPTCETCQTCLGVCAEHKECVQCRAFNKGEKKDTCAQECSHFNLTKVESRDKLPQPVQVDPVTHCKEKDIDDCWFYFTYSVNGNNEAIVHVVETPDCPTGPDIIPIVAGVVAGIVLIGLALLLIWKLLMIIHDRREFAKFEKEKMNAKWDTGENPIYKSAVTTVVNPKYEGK

N=C(N)NCCCCCNC(=O)NC[C@H](NC(=O)[C@@H]1CCCN1S(=O)(=O)c1ccccc1)C(=O)O [Compound 5]
potency against α5β1 integrin in cell adhesion assay (in words) [1]: sub-micromolar IC50 | potency against αvβ1 integrin in cell adhesion assay (in words) [2]: sub-nanomolar potency | selectivity against αvβ3 integrin in cell adhesion assay (in words) [3]: excellent selectivity

N=C(N)Nc1cc(NC(=O)CCCNC(=O)C23CC4CC(CC(C4)C2)C3)cc(C(=O)NCC(=O)NC[C@H](NC(=O)[C@@H]2CCCN2S(=O)(=O)c2ccccc2)C(=O)O)c1 [Compound 15]
potency against α5β1 integrin in cell adhesion assay (in words) [1]: excellent nanomolar potency | potency against αvβ1 integrin in cell adhesion assay (in words) [2]: sub-nanomolar potency | selectivity against αvβ3 integrin in cell adhesion assay (in words) [3]: great selectivity | permeability in Caco-2 cell assay (in words) [4]: poor permeability | solubility (in words) [5]: limited solubility

N=C(N)NCCCCC(=O)Nc1ccc(C[C@H](NC(=O)[C@@H]2CCCN2S(=O)(=O)c2ccccc2)C(=O)O)cc1 [Compound 4]
selectivity against α4β1 integrin (in words) [6]: marginal selectivity

N=C(N)Nc1cccc(C(=O)NCC(=O)NC[C@H](NC(=O)[C@@H]2CCCN2S(=O)(=O)c2ccccc2)C(=O)O)c1 [Compound 11]
improvement of potency against α5β1 integrin [1]: more than 10 fold | selectivity against αvβ3 integrin in cell adhesion assay (in words) [3]: not still satisfactory

N=C(N)Nc1cccc(C(=O)NNC(=O)NC[C@H](NC(=O)[C@@H]2CCCN2S(=O)(=O)c2ccccc2)C(=O)O)c1 [Compound 12]
improvement of potency against α5β1 integrin [1]: more than 10 fold | selectivity against αvβ3 integrin in cell adhesion assay (in words) [3]: not still satisfactory
